Experimental findings from patent US7973219B2, “Method for producing transgenic plants resistant to weed control compounds which disrupt the porphyrin pathways of plants” (Sumitomo Chemical Company, Limited, priority 1998, dated 2011) are described below.

Experiment [1] has as its system E. coli BT3/pACYCSP+pTVHVF1 strain. Nature of the experiment: Growth of E. coli BT3/pACYCSP+pTVHVF1 (variant barley ferrochelatase) with herbicidal compound. Conditions: 18 hours culture, Table 11. The format is cell-based, Escherichia coli. The source says: According to the description of Gibson, L. C. D. et al., Proc. Natl. Acad. Sci. USA, 92; p 1941 (1995), the DNA fragment containing bchH gene prepared in Example 1 was digested with the restriction enzymes NdeI and BglII. The resultant DNA fragment was inserted between NdeI restriction site and BamHI restriction site of expression vector pET11a (manufactured by Stratagene) to obtain plasmid pETBCH (FIG. 1). This plasmid pETBCH was introduced into E. coli BL21(DE3) strain competent cells (manufactured by Stratagene) according to the manual attached to the competent cells to obtain E. coli BL21(DE3)/pETBCH strain. The strain was inoculated into 1.5 ml LB liquid culture medium (1% tryptone, 0.5% yeast extract, 0.5% NaCl) containing 100 μg/ml ampicillin in a tube (14×10 mm), and the tube was covered with aluminum foil (hereinafter referred to as dark conditions), cultured with shaking at 37° C. under light of fluorescent lamp (about 8000 lux). When the absorbance at 600 nm of the liquid culture medium became about 0.6, isopropyl β-D-thiogalactopyranoside (IPTG) was added to the liquid culture medium so that the final concentration was 0.4 mM, and the culture was continued for about additional 20 hours. […] In contrast to this, when E. coli BL21(DE3)/pETBCH strain was cultured according to the same manner (with IPTG) except that the tube was not covered with aluminum foil (hereinafter referred to as light conditions), E. coli grew and turned red as above.
A plasmid bearing barley ferrochelatase gene was prepared by the method described in Miyamoto. K. et al. Plant Physiol. 105; p 769 (1994). The resultant plasmid was digested with restriction enzymes NspI and EcoRI to obtain the DNA fragment containing the gene encoding barley ferrochelatase whose signal sequence had been deleted (hereinafter referred to as the variant barley ferrochelatase). This DNA fragment was inserted between SphI restriction site and EcoRI restriction site of plasmid pTV119N (manufactured by Takara Shuzo Co., Ltd.) to construct plasmid pTVHVF1 (FIG. 12). […]
These E. coli strains were inoculated into YPT medium containing 10 or 1 ppm of the PPO inhibitory-type herbicidal compound represented by Structure 8, 100 μg/ml ampicillin, 15 μg/ml chloramphenicol, 10 μg/ml kanamycin, 10 μg/ml hemin and 50 μg/ml aminolevulinic acid, cultured under dark conditions or light conditions according to the same manner as in Example 2. Then, 18 hours after initiation of culture, the absorbance of liquid culture medium was measured at 600 nm. By taking the absorbance of the medium without the herbicidal compound as 1, the relative value of the absorbance of the medium containing the herbicidal compound was calculated.

Experiment [2] concerns tobacco into which the gene encoding the variant Chlamydomonas reinhardtii PPO was introduced. The experiment can be described thus: Leaf piece chlorophyll test, tobacco with gene encoding variant Chlamydomonas reinhardtii PPO. The format is in vivo. Particulars: Table 10; for Resistant level to test compound: same manner as Example 6 (0.3 ppm), treated vs untreated leaf pieces; for Total chlorophyll content treated-leaf: same manner as Example 6 (0.3 ppm, 7 days in light). The source says:
The tobacco leaves into which bchH gene was introduced and control recombinant tobacco leaves obtained in Example 5 were collected and each leaf was divided into the right and left equivalent pieces along the main vein, respectively. To one piece was applied an aqueous solution containing 0.3 ppm PPO inhibitory-type herbicidal compound of Structure 8, while, to the other piece was not applied the compound. These leaf pieces were placed on MS medium containing 0.8% agar and allowed to stand at room temperature for 7 days in light place. Then, each leaf piece was ground with pestle and mortar in 5 ml of 80% aqueous acetone solution to extract chlorophyll. The extract liquid was diluted with 80% aqueous acetone solution and the absorbance was measured at 750 nm, 663 nm and 645 nm to calculate total chlorophyll content according to the method described by Macknney G., J. Biol. Chem. (1941) 140, p 315. The results obtained from 4 clones of tobacco into which bchH gene was introduced (BCH1 to 4) and control recombinant tobacco is shown in Table 4. In the table, the resistant level to the herbicidal compound was represented by percentages of the total chlorophyll content of leaf pieces treated with herbicidal compound to that of untreated leaf pieces.
Leaf pieces of tobacco cultured sterilely were infected with the Agrobacterium strain and, according to the same manner as in Example 5, tobacco into which the gene encoding the variant Chlamydomonas reinhardtii PPO was introduced was obtained.
The level of resistance to the PPO-inhibitory type herbicidal compound represented by Structure 8 was confirmed quantitatively by testing tobacco into which the gene encoding the variant Chlamydomonas reinhardtii PPO prepared in Example 18 was introduced according to the same manner as in Example 6. The results obtained from 4 clones (CRP 1-4) of tobacco into which the gene encoding the variant Chlamydomonas reinhardtii PPO was introduced and control recombinant tobacco is shown in Table 10. In the table, the resistant levels to the herbicidal compound are represented by percentages of the total chlorophyll content of leaf pieces treated with the herbicidal compound to that of untreated leaf pieces.

Molecules are shown by their SMILES.

Take `C#CCOc1cc(N2C(=O)C3=C(CCCC3)C2=O)c(F)cc1Cl` [Structure 8]: the Relative absorbance in experiment [1] (in the dark, 1 ppm) is given as 0.96; in experiment [1] (in the dark, 10 ppm), 0.94; in experiment [1] (in the light, 1 ppm), 0.94; in experiment [1] (in the light, 10 ppm) it was 0.39. Also, the “Resistant level to test compound” value was found to be 121% in experiment [2] (clone CRP-1), 111% in experiment [2] (clone CRP-2), 101% in experiment [2] (clone CRP-3) and 99.4% in experiment [2] (clone CRP-4). Also, the “Total chlorophyll content treated-leaf” value was 1.54 mg/g-fresh weight in experiment [2] (clone CRP-1), 1.67 mg/g-fresh weight in experiment [2] (clone CRP-2) and 1.11 mg/g-fresh weight in experiment [2] (clone CRP-3).
